Measurements: ChEMBL document CHEMBL1201862, “PubChem BioAssay data set” (2004)
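Grown in 96-well plates, cells were treated for 48 hours with each compound at five concentrations. Insufficient inhibition: endpoint recorded as highest concentration tested. The concentration for 50% growth inhibition is given as GI50.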 The source made the active and inactive calls. Cut-off read from the data, not from the text of the source: active = GI50 up to about 1.1 µM and inactive = higher.

Columns and labels:
Assay in all cases: NCI anticancer screen, dose series, 48 h
[1] = test system: A498
[2] = test system: A549
[3] = test system: CAKI-1
[4] = test system: EKVX
[5] = test system: HCT-116
[6] = test system: HOP-62
[7] = test system: HOP-92
[8] = test system: IGROV-1
[9] = test system: MDA-MB-231
[10] = test system: MDA-N
[11] = test system: NCI-H460
[12] = test system: OVCAR-5
[13] = test system: RPMI-8226
[14] = test system: RXF 393
[15] = test system: SF-268
[16] = test system: SK-MEL-5
[17] = test system: SK-OV-3
[18] = test system: SNB-75
[19] = test system: NCI-H226

Measured: GI50

CC(C)(C)c1ccc(O)c(CN(Cc2c(O)ccc3ccccc23)C2CCCCC2)c1
inactive: [1] 19.5 µM | [2] 18.5 µM | [3] 15.2 µM | [4] 15.8 µM | [5] 16.9 µM | [6] 17.6 µM | [7] 16.4 µM | [8] 15.7 µM | [9] 16.8 µM | [10] 15.5 µM | [11] 15.8 µM | [12] 16.9 µM | [13] 26.6 µM | [14] 17.5 µM | [15] 16.1 µM | [16] 16.5 µM | [17] 24.9 µM | [18] 16 µM

CC1(C)CC(=O)c2[nH]c3ccccc3c2CC(=O)NCCc2cn1cn2
inactive: [1] > 100 µM | [2] > 100 µM | [3] > 100 µM | [4] > 100 µM | [5] > 100 µM | [7] 36.5 µM | [8] > 100 µM | [9] 88.1 µM | [10] > 100 µM | [19] > 100 µM | [11] > 100 µM | [12] > 100 µM | [14] 73.8 µM | [15] > 100 µM | [16] > 100 µM | [17] > 100 µM | [18] > 100 µM

O=S(=O)(c1ccccc1)n1c2ccc(Br)cc2c2nc3ccccc3nc21
inactive: [1] > 100 µM | [2] > 100 µM | [3] > 100 µM | [5] > 100 µM | [6] > 100 µM | [7] > 100 µM | [8] > 100 µM | [9] > 100 µM | [10] > 100 µM | [19] 47.9 µM | [11] > 100 µM | [12] > 100 µM | [13] > 100 µM | [14] > 100 µM | [15] > 100 µM | [16] > 100 µM | [18] > 100 µM

Cc1cn(CCCCC2=NCCCN2)c(=O)[nH]c1=O
inactive: [1] > 31.8 µM | [2] > 35.1 µM | [3] > 15.1 µM | [4] > 29.9 µM | [5] > 23.3 µM | [6] > 46.6 µM | [7] 3.66 µM | [8] > 26.5 µM | [9] > 29.4 µM | [10] > 100 µM | [19] > 57.7 µM | [11] > 52.5 µM | [12] > 30.3 µM | [13] > 100 µM | [14] 25.8 µM | [15] 1.34 µM | [16] > 28.1 µM | [17] > 29.6 µM

O=S(=O)(O)c1ccc2c(/N=N/c3ccccc3Cl)c(O)ccc2c1
inactive: [1] > 100 µM | [2] > 100 µM | [3] > 100 µM | [4] > 100 µM | [5] > 100 µM | [6] > 100 µM | [7] > 100 µM | [8] > 100 µM | [9] > 100 µM | [10] > 100 µM | [12] > 100 µM | [13] > 100 µM | [14] > 100 µM | [15] > 100 µM | [16] > 100 µM | [17] > 100 µM | [18] > 100 µM

O=C(/C=C/c1ccc(O)c(O)c1)OCCOC(=O)/C=C/c1ccc(O)c(O)c1
inactive: [1] 39.5 µM | [2] 32.1 µM | [3] 39.4 µM | [4] 26.7 µM | [5] 21.1 µM | [6] 21.5 µM | [7] 42.2 µM | [8] 35 µM | [9] 38 µM | [10] 19.8 µM | [19] 30.1 µM | [11] 37.2 µM | [12] 14.2 µM | [13] 36.2 µM | [14] 22.6 µM | [15] 27.7 µM | [16] 18.2 µM | [17] 24.2 µM
